Tested on: NCI-H196 complex spheroid viability
Test: Anticancer human tumor NCI-H196 cell line growth inhibition [LSD1];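 note: spheroids exposed to agents for 7 days before readout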;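 for viability, T/C: 100% = DMSO vehicle control viability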
Conditions: for IC50: curve of first compound; for viability, T/C: stronger effect = lower value
Procedure, shortened: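 Drug combinations with the LSD1 inhibitor iadademstat tested on tumor cells co-cultured as spheroids with endothelial cells and mesenchymal stem cells. Concentrations descended in half-log increments from clinical Cmax or 10 microM.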

[1] = second compound 0.1 µM, first compound 0.000316 µM
[2] = second compound 0.1 µM, first compound 0.001 µM
[3] = second compound 0.1 µM, first compound 0.00316 µM
[4] = second compound 0.1 µM, first compound 0.01 µM
[5] = second compound 0.1 µM, first compound 0.0316 µM
[6] = second compound 0.1 µM, first compound 0.1 µM
[7] = second compound 0.316 µM, first compound 0.000316 µM
[8] = second compound 0.316 µM, first compound 0.001 µM
[9] = second compound 0.316 µM, first compound 0.00316 µM
[10] = second compound 0.316 µM, first compound 0.01 µM
[11] = second compound 0.316 µM, first compound 0.0316 µM
[12] = second compound 0.316 µM, first compound 0.1 µM
[13] = second compound 1 µM, first compound 0.000316 µM
[14] = second compound 1 µM, first compound 0.001 µM
[15] = second compound 1 µM, first compound 0.00316 µM
[16] = second compound 1 µM, first compound 0.01 µM
[17] = second compound 1 µM, first compound 0.0316 µM
[18] = second compound 1 µM, first compound 0.1 µM
[19] = second compound 3.16 µM, first compound 0.000316 µM
[20] = second compound 3.16 µM, first compound 0.001 µM
[21] = second compound 3.16 µM, first compound 0.00316 µM
[22] = second compound 3.16 µM, first compound 0.01 µM
[23] = second compound 3.16 µM, first compound 0.0316 µM
[24] = second compound 3.16 µM, first compound 0.1 µM
[25] = second compound 10 µM, first compound 0.000316 µM
[26] = second compound 10 µM, first compound 0.001 µM
[27] = second compound 10 µM, first compound 0.00316 µM
[28] = second compound 10 µM, first compound 0.01 µM
[29] = second compound 10 µM, first compound 0.0316 µM
[30] = second compound 10 µM, first compound 0.1 µM

Structure (SMILES): CC(C)CC(NC(=O)C(Cc1ccccc1)NC(=O)c1cnccn1)B(O)O (stereo not given) + NC1CCC(NC2CC2c2ccccc2)CC1
- IC50 (second compound 0.1 µM): 0.529 nM
- IC50 (second compound 0.316 µM): 0.555 nM
- IC50 (second compound 1 µM): 0.572 nM
- IC50 (second compound 3.16 µM): 0.508 nM
- IC50 (second compound 10 µM): 0.511 nM
- viability, T/C [1]: 84.1%
- viability, T/C [2]: 7.65%
- viability, T/C [3]: 4.44%
- viability, T/C [4]: 3.35%
- viability, T/C [5]: 1.92%
- viability, T/C [6]: 1.52%
- viability, T/C [7]: 87.9%
- viability, T/C [8]: 10.3%
- viability, T/C [9]: 3.34%
- viability, T/C [10]: 2.71%
- viability, T/C [11]: 2.22%
- viability, T/C [12]: 0.68%
- viability, T/C [13]: 95.9%
- viability, T/C [14]: 6.67%
- viability, T/C [15]: 3.82%
- viability, T/C [16]: 2.43%
- viability, T/C [17]: 2.03%
- viability, T/C [18]: 0.58%
- viability, T/C [19]: 80.8%
- viability, T/C [20]: 5.93%
- viability, T/C [21]: 3.18%
- viability, T/C [22]: 2.05%
- viability, T/C [23]: 2.04%
- viability, T/C [24]: 0.46%
- viability, T/C [25]: 82.5%
- viability, T/C [26]: 4.35%
- viability, T/C [27]: 2.41%
- viability, T/C [28]: 1.45%
- viability, T/C [29]: 0.95%
- viability, T/C [30]: 0.47%

Structure (SMILES): CC(C)CC(NC(=O)CNC(=O)c1cc(Cl)ccc1Cl)B1OC(=O)CC(CC(=O)O)(C(=O)O)O1 (stereo not given) + NC1CCC(NC2CC2c2ccccc2)CC1
- IC50 (second compound 0.1 µM): 18.6 nM
- IC50 (second compound 0.316 µM): 19.5 nM
- IC50 (second compound 1 µM): 18.7 nM
- IC50 (second compound 3.16 µM): 21.5 nM
- IC50 (second compound 10 µM): 20.1 nM
- viability, T/C [1]: 107%
- viability, T/C [2]: 109%
- viability, T/C [3]: 102%
- viability, T/C [4]: 78%
- viability, T/C [5]: 26.1%
- viability, T/C [6]: 8.24%
- viability, T/C [7]: 106%
- viability, T/C [8]: 106%
- viability, T/C [9]: 101%
- viability, T/C [10]: 78.5%
- viability, T/C [11]: 29.5%
- viability, T/C [12]: 8.69%
- viability, T/C [13]: 103%
- viability, T/C [14]: 105%
- viability, T/C [15]: 120%
- viability, T/C [16]: 71.9%
- viability, T/C [17]: 31.4%
- viability, T/C [18]: 7.57%
- viability, T/C [19]: 99.5%
- viability, T/C [20]: 107%
- viability, T/C [21]: 102%
- viability, T/C [22]: 85.8%
- viability, T/C [23]: 31.9%
- viability, T/C [24]: 9.23%
- viability, T/C [25]: 102%
- viability, T/C [26]: 104%
- viability, T/C [27]: 105%
- viability, T/C [28]: 75.7%
- viability, T/C [29]: 33%
- viability, T/C [30]: 6.12%

Structure (SMILES): Nc1ccccc1NC(=O)c1ccc(CNC(=O)OCc2cccnc2)cc1 + NC1CCC(NC2CC2c2ccccc2)CC1
- IC50 (second compound 0.1 µM): 62.2 nM
- IC50 (second compound 0.316 µM): 59.3 nM
- IC50 (second compound 1 µM): 88.6 nM
- IC50 (second compound 3.16 µM): 77.4 nM
- IC50 (second compound 10 µM): 73.5 nM
- viability, T/C (second compound 0.1 µM, first compound 0.00949 µM): 82.9%
- viability, T/C (second compound 0.1 µM, first compound 0.03 µM): 66.6%
- viability, T/C (second compound 0.1 µM, first compound 0.0949 µM): 41%
- viability, T/C (second compound 0.1 µM, first compound 0.3 µM): 12%
- viability, T/C (second compound 0.1 µM, first compound 0.949 µM): 0.32%
- viability, T/C (second compound 0.1 µM, first compound 3 µM): 1.24%
- viability, T/C (second compound 0.316 µM, first compound 0.00949 µM): 81.2%
- viability, T/C (second compound 0.316 µM, first compound 0.03 µM): 69.3%
- viability, T/C (second compound 0.316 µM, first compound 0.0949 µM): 36.4%
- viability, T/C (second compound 0.316 µM, first compound 0.3 µM): 11.9%
- viability, T/C (second compound 0.316 µM, first compound 0.949 µM): 0.27%
- viability, T/C (second compound 0.316 µM, first compound 3 µM): 0.3%
- viability, T/C (second compound 1 µM, first compound 0.00949 µM): 84.8%
- viability, T/C (second compound 1 µM, first compound 0.03 µM): 73.3%
- viability, T/C (second compound 1 µM, first compound 0.0949 µM): 49.9%
- viability, T/C (second compound 1 µM, first compound 0.3 µM): 12.2%
- viability, T/C (second compound 1 µM, first compound 0.949 µM): 0.24%
- viability, T/C (second compound 1 µM, first compound 3 µM): 0.35%
- viability, T/C (second compound 3.16 µM, first compound 0.00949 µM): 85.3%
- viability, T/C (second compound 3.16 µM, first compound 0.03 µM): 78.9%
- viability, T/C (second compound 3.16 µM, first compound 0.0949 µM): 43.4%
- viability, T/C (second compound 3.16 µM, first compound 0.3 µM): 10.2%
- viability, T/C (second compound 3.16 µM, first compound 0.949 µM): 0.27%
- viability, T/C (second compound 3.16 µM, first compound 3 µM): 0.26%
- viability, T/C (second compound 10 µM, first compound 0.00949 µM): 89.7%
- viability, T/C (second compound 10 µM, first compound 0.03 µM): 73.6%
- viability, T/C (second compound 10 µM, first compound 0.0949 µM): 44.3%
- viability, T/C (second compound 10 µM, first compound 0.3 µM): 12.1%
- viability, T/C (second compound 10 µM, first compound 0.949 µM): 1.12%
- viability, T/C (second compound 10 µM, first compound 3 µM): 0.38%

Structure (SMILES): O=C(c1cc(Cc2n[nH]c(=O)c3ccccc23)ccc1F)N1CCN(C(=O)C2CC2)CC1 + NC1CCC(NC2CC2c2ccccc2)CC1
- IC50 (second compound 0.1 µM): > 10000 nM
- IC50 (second compound 0.316 µM): > 10000 nM
- IC50 (second compound 1 µM): > 10000 nM
- IC50 (second compound 3.16 µM): > 10000 nM
- IC50 (second compound 10 µM): > 10000 nM
- viability, T/C [5]: 91.8%
- viability, T/C [6]: 97.9%
- viability, T/C (second compound 0.1 µM, first compound 0.316 µM): 91.7%
- viability, T/C (second compound 0.1 µM, first compound 1 µM): 86.5%
- viability, T/C (second compound 0.1 µM, first compound 3.16 µM): 93.5%
- viability, T/C (second compound 0.1 µM, first compound 10 µM): 88.3%
- viability, T/C [11]: 89.8%
- viability, T/C [12]: 103%
- viability, T/C (second compound 0.316 µM, first compound 0.316 µM): 97.8%
- viability, T/C (second compound 0.316 µM, first compound 1 µM): 94.8%
- viability, T/C (second compound 0.316 µM, first compound 3.16 µM): 83.4%
- viability, T/C (second compound 0.316 µM, first compound 10 µM): 83%
- viability, T/C [17]: 89.9%
- viability, T/C [18]: 91.4%
- viability, T/C (second compound 1 µM, first compound 0.316 µM): 95.6%
- viability, T/C (second compound 1 µM, first compound 1 µM): 83.5%
- viability, T/C (second compound 1 µM, first compound 3.16 µM): 89%
- viability, T/C (second compound 1 µM, first compound 10 µM): 80.1%
- viability, T/C [23]: 91%
- viability, T/C [24]: 87%
- viability, T/C (second compound 3.16 µM, first compound 0.316 µM): 88%
- viability, T/C (second compound 3.16 µM, first compound 1 µM): 87.4%
- viability, T/C (second compound 3.16 µM, first compound 3.16 µM): 85.7%
- viability, T/C (second compound 3.16 µM, first compound 10 µM): 87.5%
- viability, T/C [29]: 89.9%
- viability, T/C [30]: 90.2%
- viability, T/C (second compound 10 µM, first compound 0.316 µM): 88.1%
- viability, T/C (second compound 10 µM, first compound 1 µM): 89.5%
- viability, T/C (second compound 10 µM, first compound 3.16 µM): 85.7%
- viability, T/C (second compound 10 µM, first compound 10 µM): 86.8%

— PubChem BioAssay AID1918958 (Molecular Pharmacology Branch, DTP, NCI, 2023)
